These results are taken from EP4570798A1, “AROMATIC HETEROCYCLIC CYCLOHEXYL AMINOALKYL PIPERIDINE DERIVATIVE, PREPARATION METHOD AND USE THEREOF” (Jiangsu NHWA Pharmaceutical Co., Ltd, priority 2022, dated 2024).

The target in one data set is T1, 5-HT1A (Homo sapiens, UniProt P08908).
T1 sequence (P08908 1-422): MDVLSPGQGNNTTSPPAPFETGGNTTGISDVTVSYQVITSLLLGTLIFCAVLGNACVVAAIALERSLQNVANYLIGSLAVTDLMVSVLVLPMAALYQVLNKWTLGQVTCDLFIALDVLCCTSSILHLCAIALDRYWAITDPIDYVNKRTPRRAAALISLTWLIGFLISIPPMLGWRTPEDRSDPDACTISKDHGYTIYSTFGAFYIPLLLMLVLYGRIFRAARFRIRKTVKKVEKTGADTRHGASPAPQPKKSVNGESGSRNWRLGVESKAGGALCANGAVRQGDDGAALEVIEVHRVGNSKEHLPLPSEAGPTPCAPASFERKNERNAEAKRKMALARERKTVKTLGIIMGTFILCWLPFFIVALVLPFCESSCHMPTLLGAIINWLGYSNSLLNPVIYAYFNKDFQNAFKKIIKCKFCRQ
Kind of data set: In vitro 5HT1A receptor function experiment (cAMP, forskolin-stimulated HEK293/5HT1A cells). Format: cell-based. Details: expressed in transfected cells; host or cells: HEK293. The note with it: for EC50: forskolin 1 µM; for Emax: maximum activation rate. As to the method: 1.1.1 Cell information: HEK293/5HT1A: a stably transfected cell strain HEK293/5HT1A constructed by adopting 5HT1A receptor lentivirus to infect HEK293; growth culture medium: DMEM, 10% FBS, and 0.6 µg/mL puro; and cryopreservation culture medium: 70% culture medium, 20% FBS, and 10% DMSO.

Data set [1] can be described thus: In vitro liver microsome stability, SD rat. Conditions: for CLint(liver): SD rat liver microsomes; for CLint scaled at 1 µM / half-life at 1 µM / microsomal CLint at 1 µM: SD, rat, liver microsomes, pH 7.4. (Microsomes from liver hold many membrane-bound enzymes, among them those of drug oxidation.)
Description: (§1) • (1) Buffer preparation: 73.21 g of dipotassium hydrogen phosphate trihydrate and 10.78 g of potassium dihydrogen phosphate were dissolved in 4000 mL of ultrapure water. The pH of the solution was adjusted to within 7.40 ± 0.10 using 10% phosphoric acid or 1 M potassium hydroxide, resulting in a final concentration of 100 mM. • (2) Solution preparation and dilution: Stock solutions of the test compounds at a concentration of 10 mM were prepared in dimethyl sulfoxide (DMSO) and stored at 4 °C, and they were diluted into 100 µM working solutions with pure acetonitrile when used. A stock solution of the control compound testosterone at a concentration of 10 mM was prepared in DMSO and stored at -20 °C, and it was diluted into a 400 µM working solution with pure acetonitrile when used. • (3) Termination solution preparation: The termination solution was acetonitrile containing the internal standard buspirone. The prepared termination solution was stored in a refrigerator at 2-8 °C. • (4) Liver microsome solution preparation: Microsomes from various species (CD-1 mouse, SD rat, and human) were diluted into a 20× working solution using 100 mM potassium phosphate buffer. The final concentration of the microsomes in the reaction system was 0.5 mg/mL. • (5) Reduced nicotinamide adenine dinucleotide phosphate (NADPH) regeneration system preparation: Appropriate amounts of nicotinamide adenine dinucleotide phosphate (NADP), glucose-6-phosphate (G6P), magnesium chloride (MgCl2), and glucose-6-phosphate dehydrogenase (G6PDH) were weighed to prepare stock solutions at concentrations of 65.33 mM, 330 mM, 300 mM, and 250 Units/mL, respectively. The four stock solutions described above were each added to an appropriate amount of buffer, and the mixture was mixed well by gently inverting up and down. […] Several incubation plates were prepared and named T0, T5, T10, T20, T40, T60, PB60, and NCF60, respectively. […] The NCF60 plate was incubated for 60 min with potassium phosphate buffer replacing the NADPH regeneration system solution. The PB60 plate was incubated for 60 min with potassium phosphate buffer replacing the liver microsomes. Samples under all conditions were prepared in triplicate.
(§2) 2 µL of the test compound or control compound and 100 µL of microsome working solution (containing 1 mg/mL liver microsome protein) were added to each of the T0, T5, T10, T20, T40, T60, and NCF60 plates, and 2 µL of the test compound and 100 µL of potassium phosphate buffer were added to the PB60 plate. The plates described above were then pre-incubated in a 37 °C water bath for about 5 min.
(§3) After the pre-incubation, 600 µL of the termination solution was first added to the T0 samples, followed by the addition of 98 µL of NADPH regeneration system working solution. The plate was sealed, shaken, and then allowed to wait for simultaneous processing with subsequent samples. Except for the NCF60 plate where 98 µL of potassium phosphate buffer was added to each sample well, 98 µL of NADPH regeneration system working solution was added to each sample well of the other incubation plates to initiate the reaction. In the reaction system, the final concentrations of the test compound and the control compound were 1 µM and 4 µM, respectively, the concentration of the liver microsomes was 0.5 mg/mL, and the final concentrations of DMSO and acetonitrile were 0.01% (v/v) and 0.99% (v/v), respectively.
(§4) After incubation for an appropriate time (such as 5, 10, 20, 40, and 60 min), 600 µL of the termination solution containing the internal standard was added to each test compound sample and control compound well to terminate the reaction. The plates were sealed, shaken well, and then centrifuged at 4000 ×g and 4 °C for 15 min.
The nature of data set [2]: In vitro liver microsome stability, human. Conditions: for CLint(liver): Human liver microsomes; for CLint scaled at 1 µM / half-life at 1 µM / microsomal CLint at 1 µM: human, liver microsomes, pH 7.4.
Description: as §1, §2, §3, §4
Data set [3] can be described thus: In vitro liver microsome stability, CD-1 mouse. The note with it: for CLint scaled at 1 µM / half-life at 1 µM / microsomal CLint at 1 µM: CD-1, mouse, liver microsomes, pH 7.4; for CLint(liver): CD-1 mouse liver microsomes.
Description: as §1, §2, §3, §4
In another data set the target is T2, Dopamine D3 receptor (Homo sapiens, UniProt P35462).
T2 construct: expressed in transfected cells; host or cells: CHO-K1
T2 sequence (P35462 whole entry, species assumed): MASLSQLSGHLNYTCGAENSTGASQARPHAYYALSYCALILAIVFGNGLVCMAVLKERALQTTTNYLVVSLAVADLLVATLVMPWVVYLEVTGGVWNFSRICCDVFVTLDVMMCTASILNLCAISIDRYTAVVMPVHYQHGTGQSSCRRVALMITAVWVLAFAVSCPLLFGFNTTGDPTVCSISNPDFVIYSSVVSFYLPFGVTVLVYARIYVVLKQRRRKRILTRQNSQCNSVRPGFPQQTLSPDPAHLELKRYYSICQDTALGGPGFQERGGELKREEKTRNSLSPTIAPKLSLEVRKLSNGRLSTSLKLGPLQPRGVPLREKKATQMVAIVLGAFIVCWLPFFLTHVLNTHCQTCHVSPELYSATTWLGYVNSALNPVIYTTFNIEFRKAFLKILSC
Kind of data set: In vitro dopamine D3 receptor function experiment (CHO-K1/D3/CRE reporter, chemiluminescence). Conditions: for EC50: forskolin 0.4 µM; for Emax: maximum activation rate. The format is cell-based. The protocol: 3.1.1 Cell information: CHO-K1/D3/CRE constructed by referring to the method in Example 5 of CN114369578A.
The first day: cell plating • (1) The cultured cells were digested with trypsin, and after the digestion was terminated with culture medium, the cell suspension was transferred to a centrifuge tube and centrifuged at 750 rpm for 5 min. • (2) The supernatant was discarded, and the pellet was resuspended in an appropriate amount of plating medium.
The following day: experimental detection • (1) The test compounds were diluted to 0.2 mM with DMSO, and the reference compound dopamine was diluted to 0.02 mM. • (2) Compound dilution (4-fold dilution at 8 concentration points) was performed using Bravo, with the starting concentrations of the test compounds and the reference compound being 5 µM and 500 nM, respectively. […] The program selected was an ultrasensitive chemiluminescence detection program.

At 5-HT1A, `CCCN(CC1CCN(S(=O)(=O)c2ccccc2)CC1)[C@H]1CCc2nc(N)sc2C1` [Example 30, (S)-N^6-((1-(Phenylsulfonyl)piperidin-4-yl)methyl)-N^6-propyl-4,5,6,7-tetrahydrobenzo[d]thiazole-2,6-diamine] registered an EC50 of 39.9 nM and an Emax of 125%.
As to `CCCN(CC1CCN(C(=O)c2cncs2)CC1)[C@H]1CCc2nc(N)sc2C1` [Example 27, (S)-(4-(((2-Amino-4,5,6,7-tetrahydrobenzo[d]thiazol-6-yl)(propyl)amino)methyl)piperidin-1-yl)(thiazol-5-yl)methanone], in data set [1], the “CLint(liver)” value came to 25.5 mL/min/K g, the CLint scaled at 1 µM is 23.7 to 129 mL/min/kg, the half-life at 1 µM turned out to be 1.63 h and the microsomal CLint at 1 µM turned out to be 14.2 µL/min/mg. Also, in data set [2], the “CLint(liver)” value worked out at 14.7 mL/min/K g, the CLint scaled at 1 µM is 8.9 to 48.3 mL/min/kg, the half-life at 1 µM worked out at 1.42 h and the microsomal CLint at 1 µM turned out to be 16.3 µL/min/mg. In data set [3], the CLint scaled at 1 µM was in the range of 38.6 to 210 mL/min/kg, the half-life at 1 µM came to 1.43 h, the microsomal CLint at 1 µM was found to be 16.2 µL/min/mg and the “CLint(liver)” value was determined as 64.0 mL/min/K g. At 5-HT1A, the EC50 is 87.3 nM and the Emax came to 99.9%.
On Dopamine D3 receptor, `CCCN(CC1CCN(c2cccc(Cl)c2Cl)CC1)[C@H]1CCc2nc(N)sc2C1` [Example 7, (S)-N^6-((1-(2,3-Dichlorophenyl)piperidin-4-yl)methyl)-N^6-propyl-4,5,6,7-tetrahydrobenzo[d]thiazole-2,6-diamine] came in with a 50% effective concentration (EC50) of 2.9 nM and an Emax of 122%.
As to `CCCN(CC1CCN(C(=O)c2cc3ccccc3s2)CC1)[C@H]1CCc2nc(N)sc2C1` [Example 22, (S)-(4-(((2-Amino-4,5,6,7-tetrahydrobenzo[d]thiazol-6-yl)(propyl)amino)methyl)piperidin-1-yl)(benzo[b]thiophen-2-yl)methanone], at 5-HT1A, a half-maximal effect (EC50) was put at 99.3 nM and the Emax stood at 115%.
With `CCCN(CC1CCN(S(=O)(=O)c2ccc(F)c(Cl)c2)CC1)[C@H]1CCc2nc(N)sc2C1` [Example 31, (S)-N^6-((1-((3-Chloro-4-fluorophenyl)sulfonyl)piperidin-4-yl)methyl)-N^6-propyl-4,5,6,7-tetrahydrobenzo[d]thiazole-2,6-diamine], the EC50 was determined as 3.6 nM at Dopamine D3 receptor and 124 nM on 5-HT1A. In addition, the values for the Emax at Dopamine D3 receptor and at 5-HT1A were 103% and 120%, respectively.
On to `CCCN(CCC1CCN(C(=O)c2ccc(F)c(Cl)c2)CC1)[C@H]1CCc2nc(N)sc2C1` [Example 16, (S)-(4-(2-((2-Amino-4,5,6,7-tetrahydrobenzo[d]thiazol-6-yl)(propyl)amino)ethyl)piperidin-1-yl)(3-chloro-4-fluorophenyl)methanone], for which, on 5-HT1A, the midpoint of the response, the EC50, lay at 143 nM and the Emax stood at 93.7%.
On to `CCCN(CC1CCN(C(=O)c2ccc(F)nc2)CC1)[C@H]1CCc2nc(N)sc2C1` [Example 19, (S)-(4-(((2-Amino-4,5,6,7-tetrahydrobenzo[d]thiazol-6-yl)(propyl)amino)methyl)piperidin-1-yl)(6-fluoropyridin-3-yl)methanone], for which, on 5-HT1A, it took 184 nM to reach a half-maximal effect (EC50) and the maximal effect (Emax) was 99.5%.
At Dopamine D3 receptor, `CCCN(CC1CCN(C(=O)c2cc3ccccc3[nH]2)CC1)[C@H]1CCc2nc(N)sc2C1` [Example 21, (S)-(4-(((2-Amino-4,5,6,7-tetrahydrobenzo[d]thiazol-6-yl)(propyl)amino)methyl)piperidin-1-yl)(1H-indol-2-yl)methanone] showed an EC50 of 1.3 nM and an Emax of 105%.
Turning to `CCN(CC1CCN(c2cccc3sccc23)CC1)[C@H]1CCc2nc(N)sc2C1` [Example 13, (S)-N^6-((1-(Benzo[b]thiophen-4-yl)piperidin-4-yl)methyl)-N^6-ethyl-4,5,6,7-tetrahydrobenzo[d]thiazole-2,6-diamine], at Dopamine D3 receptor, the EC50 worked out at 3 nM and the Emax was determined as 133%. Besides, at 5-HT1A, the EC50 is 35.9 nM and the Emax is 118%.
The corresponding values for `CCCN(CC1CCN(c2cccc3sccc23)CC1)[C@@H]1CCc2nc(N)sc2C1` [Example 11, (R)-N^6-((1-(Benzo[b]thiophen-4-yl)piperidin-4-yl)methyl)-N^6-propyl-4,5,6,7-tetrahydrobenzo[d]thiazole-2,6-diamine] are 3.3 nM, 109%, 130 nM and 92.6%.
At 5-HT1A, `CCCN(CC1CCN(C(=O)c2ccc(C#N)nc2)CC1)[C@H]1CCc2nc(N)sc2C1` [Example 20, (S)-5-(4-(((2-Amino-4,5,6,7-tetrahydrobenzo[d]thiazol-6-yl)(propyl)amino)methyl)piperidine-1-carbonyl)pyridinecarbonitrile] displayed an EC50 of 131 nM and an Emax of 115%.
On 5-HT1A, `CCCN(CC1CCN(c2cccc3sccc23)CC1)C1CCc2nc(N)sc2C1` (stereo not shown) [Example 12, N^6-((1-(Benzo[b]thiophen-4-yl)piperidin-4-yl)methyl)-N^6-propyl-4,5,6,7-tetrahydrobenzo[d]thiazole-2,6-diamine] yielded a concentration for a half-maximal effect (EC50) of 31.4 nM and a maximal response (Emax) of 115%.
On Dopamine D3 receptor, `CCCN(CC1CCN(C(=O)c2ccc[nH]2)CC1)[C@H]1CCc2nc(N)sc2C1` [Example 26, (S)-(4-(((2-Amino-4,5,6,7-tetrahydrobenzo[d]thiazol-6-yl)(propyl)amino)methyl)piperidin-1-yl)(1H-pyrrol-2-yl)methanone] returned an EC50 of 1.2 nM and an Emax of 109%. In addition, at 5-HT1A, the EC50 turned out to be 16.4 nM and the Emax was 103%.
Regarding `CCCN(CC1CCN(C(=O)c2cccs2)CC1)[C@H]1CCc2nc(N)sc2C1` [Example 24, (S)-(4-(((2-Amino-4,5,6,7-tetrahydrobenzo[d]thiazol-6-yl)(propyl)amino)methyl)piperidin-1-yl)(thiophen-2-yl)methanone], in data set [1], the “CLint(liver)” value worked out at 75.2 mL/min/K g, the CLint scaled at 1 µM lay in the range of 23.7 to 129 mL/min/kg, the half-life at 1 µM was 0.553 h and the microsomal CLint at 1 µM came out at 41.8 µL/min/mg. Besides, in data set [2], the “CLint(liver)” value stood at 34.3 mL/min/K g, the CLint scaled at 1 µM fell in the range of 8.9 to 48.3 mL/min/kg, the half-life at 1 µM turned out to be 0.607 h and the microsomal CLint at 1 µM turned out to be 38.1 µL/min/mg. Further, in data set [3], the CLint scaled at 1 µM fell in the range of 38.6 to 210 mL/min/kg, the half-life at 1 µM amounted to 0.782 h, the microsomal CLint at 1 µM stood at 29.6 µL/min/mg and the “CLint(liver)” value is listed as 117.1 mL/min/K g. Also, on 5-HT1A, a half-maximal response (EC50) required 75.7 nM and the Emax is 96.5%.
`CCCN(CC1CCN(C(=O)C2CCCCC2)CC1)[C@H]1CCc2nc(N)sc2C1` [Example 29, (S)-(4-(((2-Amino-4,5,6,7-tetrahydrobenzo[d]thiazol-6-yl)(propyl)amino)methyl)piperidin-1-yl)(cyclohexyl)methanone]: the EC50 was 2.8 nM on Dopamine D3 receptor and 107 nM at 5-HT1A. The results for the Emax at Dopamine D3 receptor and at 5-HT1A were 111% and 118%, respectively.
On 5-HT1A, `CCCN(CC1CCN(C(=O)c2ccc3ccccc3c2)CC1)[C@H]1CCc2nc(N)sc2C1` [Example 23, (S)-(4-(((2-Amino-4,5,6,7-tetrahydrobenzo[d]thiazol-6-yl)(propyl)amino)methyl)piperidin-1-yl)(naphthalen-2-yl)methanone] showed an EC50 of 202 nM and an Emax of 101%.
On 5-HT1A, `CCCN(CC1CCN(C(=O)c2ccc(F)c(Cl)c2)CC1)[C@H]1CCc2nc(N)sc2C1` [Example 15, (S)-(4-(((2-Amino-4,5,6,7-tetrahydrobenzo[d]thiazol-6-yl)(propyl)amino)methyl)piperidin-1-yl)(3-chloro-4-fluorophenyl)methanone] came in with an EC50 of 4.7 nM and an Emax of 85.1%.
Taken in the same sequence, the figures for `CCCN(CC1CCN(C(=O)c2ccc(F)c(Cl)n2)CC1)[C@H]1CCc2nc(N)sc2C1` [Example 18, (S)-(4-(((2-Amino-4,5,6,7-tetrahydrobenzo[d]thiazol-6-yl)(propyl)amino)methyl)piperidin-1-yl)(6-chloro-5-fluoropyridin-2-yl)methanone] were 48 nM and 115%.

The term EC50 denotes the concentration needed to bring the measured effect to its halfway point. High values mean a need for much substance, low ones an effect from little substance. What is called Emax is the greatest response seen or fitted, relative to the assay's reference. Usually CLint scaled stands for a measure of how fast metabolising enzymes remove a compound, apart from limits set by blood flow. Higher therefore signals faster metabolism. What is called half-life is the time needed for the level to fall by half in the phase considered. A lower half-life goes with rapid decline. Broadly, the microsomal CLint is the capacity of the preparation to metabolise the compound, expressed as a volume cleared per time. Higher therefore signals rapid turnover.
